The source of these data is ChEMBL document CHEMBL1201862, “PubChem BioAssay data set” (2004).

Test systems include A498; BT-549; CCRF-CEM; EKVX; HOP-62; Hs-578T; IGROV-1; LOX IMVI; MCF7; MDA-MB-231; MDA-N; NCI-H23; NCI/ADR-RES; OVCAR-5; RXF 393; T47D; U-251; UACC-257; SR.
Holding throughout (assay): NCI tumour cell line growth inhibition, 48 h

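Protocol summary: plate cells (96-well), add compound at 5 concentrations, incubate 48 h, interpolate endpoints linearly. At the GI50, growth is halved.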 The source made the active and inactive calls. No stated cut-off is given here; in the data, active = GI50 up to about 1.1 µM and inactive = higher.

Take `O=C(O)c1ccccc1Sc1ccccc1[N+](=O)[O-]`: the GI50 with A498, in the assay on BT-549, with CCRF-CEM, in the assay with EKVX, in the assay with HOP-62 and in the assay on Hs-578T was > 100 µM (inactive) throughout. Moreover, the GI50 in the assay on IGROV-1, in the assay with LOX IMVI, with MCF7, in the assay with MDA-MB-231, in the assay with MDA-N and in the assay with NCI-H23 was > 100 µM (inactive) each time. In addition, the GI50 with NCI/ADR-RES, with OVCAR-5, in the assay with RXF 393, in the assay on T47D, with U-251 and in the assay with UACC-257 was > 100 µM (inactive) throughout.

For `O=c1[nH]nc(-c2cccc(Br)c2)[nH]1`, the GI50 in the assay with A498 was > 100 µM (inactive); with BT-549, 4.74 µM (inactive); with CCRF-CEM it was > 100 µM (inactive); with EKVX, 2.48 µM (inactive); in the assay on HOP-62, > 100 µM (inactive); in the assay with Hs-578T, 18.2 µM (inactive). Also, the GI50 in the assay on IGROV-1, in the assay with LOX IMVI, in the assay on MCF7, with MDA-N, in the assay with NCI-H23 and in the assay with NCI/ADR-RES was > 100 µM (inactive) throughout. Moreover, the GI50 with OVCAR-5, in the assay on RXF 393, with SR, with T47D, in the assay with U-251 and in the assay with UACC-257 was > 100 µM (inactive) in each case.

For `O=C(/C=C/c1ccccc1)CCN1CCN(CCC(=O)/C=C/c2ccccc2)CC1`, the GI50 is 18.9 µM (inactive) with A498; 15.1 µM (inactive) with BT-549; 3.29 µM (inactive) with CCRF-CEM; 18.6 µM (inactive) with EKVX; 22.6 µM (inactive) in the assay on HOP-62; 10.4 µM (inactive) in the assay with Hs-578T. The GI50 with IGROV-1 was 18.2 µM (inactive); in the assay with LOX IMVI, 2.38 µM (inactive); in the assay on MCF7 it was 5.81 µM (inactive); with MDA-MB-231, 5.5 µM (inactive); in the assay with MDA-N, 2.19 µM (inactive); in the assay with NCI-H23 it was 16 µM (inactive). For the same molecule, the GI50 is 24.7 µM (inactive) in the assay on NCI/ADR-RES; 16.7 µM (inactive) in the assay on OVCAR-5; 13.7 µM (inactive) in the assay with RXF 393; 14.9 µM (inactive) in the assay on T47D; 16.7 µM (inactive) with U-251; 11.5 µM (inactive) in the assay with UACC-257.

Turning to `O=C(Nc1ccc(Cl)cc1)Oc1ccc(C(=S)Nc2ccc(Br)cc2)cc1`, the GI50 in the assay with A498 is 19.1 µM (inactive); with BT-549, 17.9 µM (inactive); in the assay on CCRF-CEM it was 3.04 µM (inactive); in the assay on EKVX, 2.49 µM (inactive); in the assay on HOP-62, 39.3 µM (inactive); with Hs-578T it was 57.1 µM (inactive). Further, the GI50 in the assay on IGROV-1 was 2.05 µM (inactive); in the assay with LOX IMVI, 0.334 µM (active); in the assay with MCF7, 11.7 µM (inactive); in the assay on MDA-N, 16.7 µM (inactive); in the assay with NCI-H23 it was 27.7 µM (inactive); in the assay on NCI/ADR-RES it was 9.53 µM (inactive). Besides, the GI50 with OVCAR-5 was 4.05 µM (inactive); in the assay with SR, 5.06 µM (inactive); in the assay on T47D, 10.5 µM (inactive); with U-251, 20.5 µM (inactive); in the assay on UACC-257, 15.5 µM (inactive).

`Cc1cc(C)c(S(=O)(=O)N2CCCN(S(=O)(=O)c3c(C)cc(C)cc3C)OCCCO2)c(C)c1`: the GI50 in the assay on A498, in the assay with BT-549, in the assay on CCRF-CEM, in the assay with EKVX, in the assay with HOP-62 and with Hs-578T was > 100 µM (inactive) throughout. Also, the GI50 in the assay with IGROV-1 was > 100 µM (inactive); with LOX IMVI, > 100 µM (inactive); in the assay with MCF7, > 100 µM (inactive); in the assay on MDA-MB-231, > 100 µM (inactive); with MDA-N it was > 100 µM (inactive); in the assay with NCI-H23 it was 75.5 µM (inactive). The GI50 was > 100 µM (inactive) with NCI/ADR-RES; > 100 µM (inactive) with OVCAR-5; > 100 µM (inactive) in the assay on RXF 393; 63.5 µM (inactive) in the assay with T47D; > 100 µM (inactive) in the assay with U-251; 45.9 µM (inactive) in the assay on UACC-257.

Consider `CCOC(=O)C1(F)S(=O)(=O)OCCOS1(=O)=O`, for which the GI50 was > 100 µM (inactive) in the assay with BT-549; > 100 µM (inactive) with EKVX; > 100 µM (inactive) in the assay on HOP-62; 93.3 µM (inactive) in the assay on Hs-578T; > 100 µM (inactive) in the assay with LOX IMVI; > 100 µM (inactive) in the assay with MCF7. Further, the GI50 in the assay on MDA-N, in the assay on NCI-H23, with NCI/ADR-RES, with OVCAR-5, in the assay on RXF 393 and in the assay with SR was > 100 µM (inactive) each time. Besides, the GI50 with T47D, in the assay on U-251 and in the assay on UACC-257 was > 100 µM (inactive) each time.

In the case of `OC1(C(Sc2cc(C(F)(F)F)cc(C(F)(F)F)c2)Sc2cc(C(F)(F)F)cc(C(F)(F)F)c2)C=CCCC1` (configuration not stated), the GI50 in the assay on A498 was 1.35 µM (inactive); in the assay on BT-549, 3.35 µM (inactive); in the assay with CCRF-CEM, 1.61 µM (inactive); in the assay on EKVX, 2.22 µM (inactive); in the assay with HOP-62, 3.25 µM (inactive); in the assay with Hs-578T it was 2.95 µM (inactive). The GI50 with IGROV-1 is 2.38 µM (inactive); in the assay on LOX IMVI it was 1.66 µM (inactive); in the assay on MCF7 it was 1.49 µM (inactive); in the assay on MDA-N, 2.56 µM (inactive); in the assay on NCI-H23, 2.58 µM (inactive); with NCI/ADR-RES, 2.93 µM (inactive). Moreover, the GI50 in the assay with OVCAR-5 is 0.847 µM (active); in the assay with RXF 393 it was 1.75 µM (inactive); in the assay with T47D it was 1.25 µM (inactive); with UACC-257 it was 1.2 µM (inactive).

On to `Cn1cc(NC(=O)Nc2cc(C(=O)Nc3cc(C(=O)Nc4cc(S(=O)(=O)O)c5cc(S(=O)(=O)O)cc(S(=O)(=O)O)c5c4)n(C)c3)n(C)c2)cc1C(=O)Nc1cc(C(=O)Nc2cc(S(=O)(=O)O)c3cc(S(=O)(=O)O)cc(S(=O)(=O)O)c3c2)n(C)c1`, for which the GI50 was > 100 µM (inactive) in the assay with BT-549; > 100 µM (inactive) in the assay on CCRF-CEM; 31.9 µM (inactive) in the assay with EKVX; > 100 µM (inactive) with HOP-62; > 100 µM (inactive) in the assay with Hs-578T; 5.64 µM (inactive) in the assay on IGROV-1. The GI50 in the assay with MCF7, in the assay on MDA-MB-231, in the assay with MDA-N, in the assay with NCI-H23, in the assay with NCI/ADR-RES and in the assay with OVCAR-5 was > 100 µM (inactive) throughout. The GI50 with RXF 393, in the assay with SR, in the assay on T47D, with U-251 and in the assay with UACC-257 was > 100 µM (inactive) each time.
